Measurements reported in patent publication US7041290B2, “Molecules and methods for inhibiting shedding of KIM-1” (Biogen Idec MA Inc., priority 2001, dated 2006).

Columns and labels:
[1] = test system: Renal carcinoma cells 769-P; test: Cell viability with the mitochondria dye MTT; format: cell-based, human; details: end of the 28h-culture period, 0.5 to 32 μm
Procedure: (§1) Stock solutions of BB-94 and GM6001 were maintained in DMS0 at a concentration of 70 mM for BB-94 and 2.5 mM for GM6001. Compounds were diluted directly into fresh medium to concentrations ranging from 0.5 μm to 32 μm. Renal carcinoma cells 769-P were grown in RPMI medium supplemented with 10% fetal bovine serum, 10 mM HEPES, and 1 mM sodium pyruvate, and in the presence of various concentrations of BB-94 and GM6001 for 28 hours. […] The amount of soluble KIM-1 released into the extracellular milieu during the 28h-period was measured by ELISA (FIG. 5).

[2] = test system: shedding of KIM-1, renal carcinoma cells 769-P; test: Shedding of KIM-1 in 769-P cell culture, soluble KIM-1 by ELISA; format: cell-based, human; details: 769-P cells, 28 hours; for inhibition of KIM-1 shedding: 32 μM
Procedure: BB-94 (batismatat) and GM6001 (Ilomastat), are two broad spectrum hydroxamic acid-based zinc metalloproteinase inhibitors which inhibit several matrix metalloproteinases (MMP) (20). BB-94 is also a potent inhibitor of TACE (TNF alpha converting enzyme) (18). The activity of these two inhibitors on the shedding of KIM-1 in cell culture was examined.
as §1

Compound	cytotoxicity (cell viability, MTT) [1]	inhibition of KIM-1 shedding [2]	IC50 [2]	IC50 ([2]; Homo sapiens)
CNC(=O)[C@H](Cc1ccccc1)NC(=O)[C@H](CC(C)C)[C@H](CSc1cccs1)C(=O)NO [BB-94, batismatat]	absence of cytotoxicity	complete inhibition	~1000 nM	–
CNC(=O)[C@H](Cc1c[nH]c2ccccc12)NC(=O)[C@@H](CC(=O)NO)CC(C)C [GM6001, Ilomastat]	absence of cytotoxicity	complete inhibition	–	~4000 nM
